From article PMC8329300, “X-ray crystallography reveals molecular recognition mechanism for sugar binding in a melibiose transporter MelB” (Communications Biology, 2021)

Biological target: T1, WT MelBSt (Salmonella typhimurium, UniProt P30878)
T1 construct: Cys scanning mutagenesis for the full-length MelBSt; His10 (C); made in house; host or cells: E. coli DW2
Experiment: biochemical
Format: binding
Details: for IC50: IC50 of galactoside displacement on bound D2G, α-NPG, 10 μM D2G
Experimental: Fig. 1 Functional characterizations. a [^3H] Melibiose transport time course with intact cells. […] Inset, melibiose fermentation assay. Transformants with DW2 strain were plated on MacConkey agar plates containing 30 mM melibiose as the sole carbohydrate source and pH sensor neutral red, and incubated at 37 °C for 16–18 h before imaging. Number of tests = 3, from different batch of cells or duplicate measurements from same batch of sample. b Ligand binding by Trp→dansyl galactoside (D^2G) FRET assay. Purified proteins at 1 μM concentration in 20 mM Tris-HCl, pH 7.5, 100 mM CholCl, 10% glycerol, and 0.03% UDM were subjected to steady-state fluorescence measurements as described in Methods. On the time-trace, 1.8 μL of 1 mM D^2G at 10 μM was added into 180 μL of protein solutions at 1-min point, followed by supplying 10 μL of 5 mM DDMB or 5 mM α-NPG to displace the bound D^2G. For testing Na^+ or Li^+ binding, they are added into the solution before displacement with the second sugar. The structure of DDMB or α-NPG is shown in a chair form, and the carbon positions are labeled. Glycosidic bonds are indicated by arrows. Both are α-galactosides containing a substituent at the anomeric carbon-1. The data were from duplicate measurements.
Steady-state fluorescence measurements were performed with an AMINCO-Bowman series 2 spectrometer with purified MelBSt at 1 μM in 20 mM Tris-HCl, pH 7.5, 100 mM CholCl, 10% glycerol, 0.03% UDM. Using an excitation wavelength at 290 nm, the emission intensity was recorded at 490 nm. On a time-trace, D^2G, NaCl or LiCl, then DDMB or α-NPG, were sequentially added into the protein solutions at a 1 min-interval. […] An identical volume of water was used for the control. The decrease in intensity after each addition of DDMB or α-NPG was corrected by the dilution effect and plotted as a function of the accumulated α-NPG concentrations or estimated DDMB concentrations. The 50% inhibitory concentration (IC50) was determined by fitting a hyperbolic function to the data (OriginPro 2020b). The final concentration of each detergent is estimated to be 234 μM, which is less than their CMC value for (DDMB, 295 μM).
Supplementary Figure 2. Determination of DDMB binding affinity to MelBSt. (a) Titration with DDMB or a-NPG. MelBSt in 20 mM Tris-HCl, pH 7.5, 100 mM CholCl, 10% glycerol, 0.03% UDM without (1) or with 100 mM NaCl (2) were added with D2G at 10 μM at 1-min time point as indicated by triangle symbols on the Trp®dansyl FRET time trace. Starting at the 2-min of time point, DDMB or a-NPG solution was supplemented consecutively at a 1-min interval into MelBSt solution till no change in fluorescence intensity reached as indicated in star symbols. DDM and UDM were used as negative controls. 1% DDM or UDM was titrated into the mixture, The […]
At 2-min time point, additions of galactosides were colored in pink, a-NPG in yellow, UDM in blue, DDM in light blue, water in gray traces, respectively. (b) IC50 determination. The intensity decrease at each titration were corrected by the dilution effect, and plotted as a function of the accumulated DDMB or α-NPG concentration. The 50% inhibitory concentration (IC50) was determined by fitting the data to a hyperbolic function (OriginPro 2020b). Results are presented in […]
(1 picture or pasted object on this page, not shown here)

T1 sequence (P30878 whole entry): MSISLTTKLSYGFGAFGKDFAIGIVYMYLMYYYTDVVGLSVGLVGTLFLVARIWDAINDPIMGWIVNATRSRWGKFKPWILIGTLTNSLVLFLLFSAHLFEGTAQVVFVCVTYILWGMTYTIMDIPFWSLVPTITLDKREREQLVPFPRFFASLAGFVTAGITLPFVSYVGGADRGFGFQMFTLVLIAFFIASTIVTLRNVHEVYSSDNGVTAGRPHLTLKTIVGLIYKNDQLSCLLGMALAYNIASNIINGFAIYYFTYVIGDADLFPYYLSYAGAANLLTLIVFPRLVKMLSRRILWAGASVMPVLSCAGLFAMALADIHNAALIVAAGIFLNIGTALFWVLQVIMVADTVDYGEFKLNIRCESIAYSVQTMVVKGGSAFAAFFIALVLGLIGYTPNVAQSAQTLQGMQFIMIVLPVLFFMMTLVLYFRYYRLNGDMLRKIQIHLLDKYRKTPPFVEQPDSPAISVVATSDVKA

O=[N+]([O-])c1ccc(OC2OC(CO)C(O)C(O)C2O)cc1 [α-NPG, 4-nitrophenyl-α-D-galactopyranoside]
IC50 (Apo): 58.2 ± 11.5 µM | IC50 (Na+ (100 mM)): 23 ± 2.24 µM | effect on Trp→D2G FRET of D2G-bound protein (displacement) (added to D2G-bound WT MelBSt): large decrease in fluorescent intensity
